The values that follow come from patent US12378277B2, “SGLTS/DPP4 inhibitor and application thereof” (DONGBAO PURPLE STAR (HANGZHOU) BIOPHARMACEUTICAL CO., LTD., priority 2019, dated 2025).

Structures are written as SMILES. Marks after values point to notes of the source that are not given here.

In one test the test system is SD rat. In words: Rat oral glucose tolerance test (OGTT) in vivo. To be noted: 10 mg/kg single gavage. The method, then:
1. Animal: [table] 2. Experiment Grouping: [table] Experiment Process: 1. Animal Adaptation and Preparation: The experimental animals needed to be acclimatized in the animal room for 1 week after arriving at the facility. 2. Fasting and Administration The animals were fasted for 18 h in the metabolic cage, and drugs or solvents (2 mL/kg) were given according to the above table, and then 50% glucose solution (2 g/kg, 4 mL/kg) was administrated immediately. 3. Urine and Blood Sugar Test Two hours after the animals were given sugar, they resumed eating. The time points of 0 min, 15 min, 30 min, 45 min, 60 min and 120 min were collected for blood glucose determination; urine during 0-24 h was used for urine sugar (mg/200 g) and urine volume test respectively. 4. Data Analysis: All values will be expressed as average values. Statistical analysis was evaluated using Graphpad Prism 6 one-way analysis of variance Tukey's multiple comparison test. P value of less than 0.05 was considered of statistically significant.

For test [1], the target named is recombinant human dipeptidyl peptidase 4 (rhDPP4) (Homo sapiens (Human), UniProt P27487). As to the kind of experiment: rhDPP4 inhibitor screening experiment. In kind it is biochemical. To be noted: Gly-Pro-aminoluciferin substrate, luminescence, room temperature 1 hour. The method, then: 9) The data was calculated by GraphPad Prism 5.0 software: log(inhibitor) vs. response—Variable slope to obtain the IC50 value of the test compound. The experimental results were shown in Table 3. • Biological activity experiment 3: rhDPP4 inhibitor screening experiment 1. Experimental Purpose:
The inhibitory activity of the compounds on recombinant human dipeptidyl peptidase 4 (rhDPP4) was evaluated by measuring the median inhibitory concentration (IC50) value of the compounds. In this experiment, rhDPP4 was used to catalyze a substrate to produce luciferin, and reacted with luciferase to produce light signals, wherein the substrate is the luminescent precursor glycine-proline-[…] (Gly-Pro-aminoluciferin). The intensity of the light signal is directly proportional to the enzyme activity.
1) 250 nL of gradient diluted compound (4 times dilution, 10 detection concentrations) was transferred to a 384-well plate (PerkingElmer-6007299) using a non-contact nano-upgraded acoustic pipetting system (ECHO). The concentration of dimethylsulfoxide (DMSO) concentration was 0.5% in the final reaction system. Blank control wells (containing DMSO, substrate and 10 mM of tris(hydroxymethyl)aminomethane hydrochlorid (Tris-HCl)) and positive control wells (containing DMSO, substrate and rhDPP4) were set.
2) The pre-packed frozen buffer containing luciferase was taken out and restored to room temperature, and then added with substrate to prepare a working solution with a substrate concentration of 20 μM. The rhDPP4 was prepared as a 0.2 ng/mL working solution with 10 mM Tris-HCl (pH8.0) aqueous solution.
3) 25 μL of working solution containing 20 μM substrate and 25 μL of working solution containing 0.2 ng/mL rhDPP4 were added to the 384-well plate with the compound added already. The plate was centrifuged at 1000 rpm for 30 s. The plate was sealed with aluminum foil sealing film and incubated at room temperature for 1 hour.
4) The light signal intensity was detected with a multi-function enzyme label detector EnVision. […]

For the next test, the target named is Human-SGLT2 (Homo sapiens (Human), UniProt P31639). As to the kind of experiment: SGLT2 glucose transport test. Format: cell-based. The note with it: cells stably expressing Human-SGLT2; [14C]-labeled methyl α-D-glucopyranoside uptake, 37° C., 2 hours. The method, then: 6) The data was calculated by GraphPad Prism 5.0 software: log(inhibitor) vs. response—Variable slope to obtain the IC50 value of the test compound. The experimental results were shown in Table 3. • Biological activity experiment 2: SGLT2 glucose transport test 1. Experimental Purpose:
The effect of the compound on the glucose transport activity of the SGLT2 transporter was detected through measuring the amount of [^14C]-labeled glucose entering the cells with high expression of Human-SGLT2.
The cells stably expressing Human-SGLT2 used in the experiment were constructed by Shanghai WuXi AppTec. The SGLT2 cells were plated on a 96-well cell culture plate (Greiner) and cultured overnight at 5% CO2 at 37° C.
2.2. SGLT2 Glucose Transport Test
1) Experimental buffer: 10 mM 4-hydroxyethylpiperazine ethanesulfonic acid (HEPES), 1.2 mM magnesium chloride (MgCl2), 4.7 mM potassium chloride (KCl), 2.2 mM calcium chloride (CaCl2)) and 120 mM sodium chloride (NaCl).
2) Termination buffer: 10 mM 4-hydroxyethylpiperazine ethanesulfonic acid (HEPES), 1.2 mM magnesium chloride (MgCl2), 4.7 mM potassium chloride (KCl), 2.2 mM calcium chloride (CaCl2), 120 mM sodium chloride (NaCl) and 1 μM LX4211.
3) The compound was diluted with 100% dimethyl sulfoxide (DMSO) with a starting concentration of 10 μM and 8 points of 5-fold serial dilution.
4) 6 μM [^14C]-labeled methyl α-D-glucopyranoside was prepared with experimental buffer.
5) The cells were treated with 49 μL of experimental buffer, 1 μL of gradient diluted compound, and 50 μL of 6 μM [^14C]isotope-labeled sugar solution at 37° C. for 2 hours.
6) The liquid in the well was aspirated and the cells were rinsed 3 times with termination buffer.
7) The cells were lysed with 50 μL of 10% sodium hydroxide solution, the cell lysate was aspirated into the scintillation tube, and 2 mL of scintillation fluid was added.
8) An isotope detector (Tricarb) was used to read.
9) The data was calculated by GraphPad Prism 5.0 software: log(inhibitor) vs. response—Variable slope to obtain the IC50 value of the test compound. The experimental results were shown in Table 3. • Biological activity experiment 3: rhDPP4 inhibitor screening experiment 1.

The next test deals with Human-SGLT1 (Homo sapiens (Human), UniProt P13866). In words: SGLT1 glucose transport test. Format: cell-based. To be noted: cells stably expressing Human-SGLT1; [14C]-labeled methyl α-D-glucopyranoside uptake, 37° C., 2 hours. The method, then:
• Biological activity experiment 1: SGLT1 glucose transport test 1. Experimental Purpose:
The effect of the compound on the glucose transport activity of the SGLT1 transporter was detected through measuring the amount of [^14C]-labeled glucose entering the cells with high expression of Human-SGLT1.
The cells stably expressing Human-SGLT1 used in the experiment were constructed by Shanghai WuXi AppTec. The SGLT1 cells were plated on a Cytostar-T (PerkinElmer) 96-well cell culture plate, and cultured overnight at 5% CO2 at 37° C.
2.2. SGLT1 Glucose Transport Test
1) Experimental buffer: 10 mM 4-hydroxyethylpiperazine ethanesulfonic acid (HEPES), 1.2 mM magnesium chloride (MgCl2), 4.7 mM potassium chloride (KCl), 2.2 mM calcium chloride (CaCl2) and 120 mM sodium chloride (NaCl).
2) The compound was diluted with 100% dimethyl sulfoxide (DMSO) with 1 mM as the starting concentration and 8 points of 5-fold serial dilutions.
3) 3 μM [^14C]-labeled methyl α-D-glucopyranoside was prepared with experimental buffer.
4) The cells were treated with 49 μL of experimental buffer, 1 μL of the compound which was gradient diluted, and 50 μL of 3 μM [^14C] isotope-labeled sugar solution at 37° C. for 2 hours.
5) The isotope detector (Micro beta Reader) was used to read.
6) The data was calculated by GraphPad Prism 5.0 software: log(inhibitor) vs. response—Variable slope to obtain the IC50 value of the test compound. The experimental results were shown in Table 3. • Biological activity experiment 2: SGLT2 glucose transport test 1.

Sequence of Human-SGLT2 (P31639 whole entry): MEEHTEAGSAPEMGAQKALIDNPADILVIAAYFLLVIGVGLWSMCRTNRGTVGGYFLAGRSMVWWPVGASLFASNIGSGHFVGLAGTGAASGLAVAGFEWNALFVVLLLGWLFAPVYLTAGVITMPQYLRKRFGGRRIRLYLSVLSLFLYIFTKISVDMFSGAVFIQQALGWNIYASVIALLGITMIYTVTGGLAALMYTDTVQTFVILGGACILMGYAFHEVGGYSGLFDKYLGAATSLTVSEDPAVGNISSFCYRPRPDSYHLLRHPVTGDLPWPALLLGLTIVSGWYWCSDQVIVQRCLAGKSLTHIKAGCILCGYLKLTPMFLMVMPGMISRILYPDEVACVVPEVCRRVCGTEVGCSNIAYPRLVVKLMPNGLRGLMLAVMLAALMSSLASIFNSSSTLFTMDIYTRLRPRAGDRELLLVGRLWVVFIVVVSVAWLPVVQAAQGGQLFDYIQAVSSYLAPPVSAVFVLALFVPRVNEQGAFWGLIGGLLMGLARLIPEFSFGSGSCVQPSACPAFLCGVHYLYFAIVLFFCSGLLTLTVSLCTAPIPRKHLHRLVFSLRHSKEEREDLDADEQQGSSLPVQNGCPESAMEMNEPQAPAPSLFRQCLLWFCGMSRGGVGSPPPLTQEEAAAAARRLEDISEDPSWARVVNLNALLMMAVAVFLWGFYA
Sequence of Human-SGLT1 (P13866 whole entry): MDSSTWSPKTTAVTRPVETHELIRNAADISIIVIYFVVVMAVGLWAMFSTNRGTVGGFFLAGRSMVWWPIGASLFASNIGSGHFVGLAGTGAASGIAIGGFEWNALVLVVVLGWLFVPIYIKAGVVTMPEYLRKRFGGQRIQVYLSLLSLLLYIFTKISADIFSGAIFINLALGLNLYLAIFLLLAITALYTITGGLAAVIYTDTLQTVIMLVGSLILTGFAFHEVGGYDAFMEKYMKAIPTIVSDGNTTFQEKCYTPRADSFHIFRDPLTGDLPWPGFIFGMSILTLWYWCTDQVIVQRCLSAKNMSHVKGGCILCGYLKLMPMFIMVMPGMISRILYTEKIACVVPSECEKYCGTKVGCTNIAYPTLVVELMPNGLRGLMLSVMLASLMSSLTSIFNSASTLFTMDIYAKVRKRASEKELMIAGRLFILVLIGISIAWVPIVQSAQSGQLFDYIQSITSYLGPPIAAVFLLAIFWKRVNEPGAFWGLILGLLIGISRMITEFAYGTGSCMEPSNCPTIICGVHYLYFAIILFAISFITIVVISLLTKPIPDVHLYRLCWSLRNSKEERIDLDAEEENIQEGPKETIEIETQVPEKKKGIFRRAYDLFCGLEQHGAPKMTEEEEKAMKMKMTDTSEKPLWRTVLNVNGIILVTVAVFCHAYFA
Sequence of recombinant human dipeptidyl peptidase 4 (rhDPP4) (P27487 whole entry): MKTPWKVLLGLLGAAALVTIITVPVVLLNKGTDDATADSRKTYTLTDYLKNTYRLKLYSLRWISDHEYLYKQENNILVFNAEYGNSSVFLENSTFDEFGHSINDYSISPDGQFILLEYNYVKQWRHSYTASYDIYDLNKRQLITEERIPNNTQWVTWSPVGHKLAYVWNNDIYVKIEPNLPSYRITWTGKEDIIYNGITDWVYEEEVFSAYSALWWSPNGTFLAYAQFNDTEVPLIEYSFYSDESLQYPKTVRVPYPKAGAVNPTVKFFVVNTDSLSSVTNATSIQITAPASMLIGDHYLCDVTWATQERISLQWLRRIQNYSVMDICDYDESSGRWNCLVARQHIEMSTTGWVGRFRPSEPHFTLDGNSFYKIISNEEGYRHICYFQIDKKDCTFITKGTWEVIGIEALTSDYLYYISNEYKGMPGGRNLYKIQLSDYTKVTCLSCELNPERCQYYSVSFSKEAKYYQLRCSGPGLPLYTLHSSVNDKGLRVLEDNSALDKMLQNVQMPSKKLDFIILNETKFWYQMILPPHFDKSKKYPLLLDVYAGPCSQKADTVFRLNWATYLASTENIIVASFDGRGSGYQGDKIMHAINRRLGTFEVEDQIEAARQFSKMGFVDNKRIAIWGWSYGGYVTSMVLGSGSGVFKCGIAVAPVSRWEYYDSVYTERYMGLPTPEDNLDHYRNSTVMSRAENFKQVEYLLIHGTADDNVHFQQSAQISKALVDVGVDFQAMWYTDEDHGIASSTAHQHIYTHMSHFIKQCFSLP

On to `CCOc1ccc(Cc2cc([C@@H]3O[C@H](SC)[C@@H](O)[C@H](O)[C@H]3O)ccc2Cl)cc1` [Soagliflozin, Sotagliflozin], for which the OGTT glucose level AUC0-2 hr with SD rat (then 50% glucose solution 2 g/kg, solvent control group 1079) amounted to 917 mmol/L/min. For the same compound, in the test on SD rat (urine during 0-24 h, solvent control group 0.4), the Urine sugar level is given as 2913**** mg/200 g BW. The Urine volume with SD rat (urine during 0-24 h, solvent control group 16.8) was 32.2**** mL/200 g BW.
Broadly, the IC50 is the point on the concentration scale where inhibition reaches its midpoint. Regarding `CCc1ccc([C@@H]2O[C@H](SC)[C@@H](O)[C@H](O)[C@H]2O)cc1Cc1ccc(OC2CCN(C3CO[C@H](c4cc(F)ccc4F)[C@@H](N)C3)CC2)cc1` (some centres unmarked) [WXD007], the IC50 in test [1] stood at 511 nM; at Human-SGLT2, 1.44 nM; on Human-SGLT1, 3.37 nM.
For `CCc1ccc([C@@H]2O[C@H](SC)[C@@H](O)[C@H](O)[C@H]2O)cc1Cc1ccc(O[C@@H]2CCN([C@H]3CO[C@H](c4cc(F)ccc4F)[C@@H](N)C3)C2)c(C)c1` [WXD010], the IC50 in test [1] amounted to 164 nM; on Human-SGLT2, 21.2 nM; on Human-SGLT1, 144 nM.
With `CCc1ccc([C@@H]2O[C@H](SC)[C@@H](O)[C@H](O)[C@H]2O)cc1Cc1ccc(O[C@@H]2CCN([C@H]3CO[C@H](c4cc(F)ccc4F)[C@@H](N)C3)C2)c(C)c1` [WXD011], the values for the IC50 against Human-SGLT2 and at Human-SGLT1 were 10.3 nM and 44.9 nM, respectively.
As for `CS[C@H]1O[C@@H](c2ccc(C(C)C)c(Cc3ccc(O[C@@H]4CCN([C@H]5CO[C@H](c6cc(F)ccc6F)[C@@H](N)C5)C4)cc3)c2)[C@H](O)[C@@H](O)[C@@H]1O` [WXD012], the IC50 in test [1] came out at 317 nM; on Human-SGLT2 it was 6.14 nM; at Human-SGLT1 it was 11.2 nM.
